Series [1] has as its system cultured human mast cells (CHMC). The series is described as follows: CHMC low cell density IgE activation: tryptase assay. In kind it is cell-based. The following applies: read-out: CHMC anti-IgE Tryptase. The procedure, abridged:
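Degranulation is read as supernatant tryptase activity, using tryptase substrate incubated 30 min at room temperature. Before this, CHMC at low density (1000-1500 cells/well) rest 1 hr at 37° C and are triggered with anti-IgE for 30 min at 37° C.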

For series [2] the test system is unchanged. Nature of the series: CHMC low cell density ionomycin activation: tryptase assay. In kind it is cell-based. Particulars: read-out: CHMC Ionomycin Tryptase.
Series [3] is described as follows: Mouse Reverse Passive Arthus reaction (RPA reaction). In kind it is in vivo, C57BL/6 mice. Particulars: oral. How it is done: In this model system, test compounds are administered at several timepoints prior to administration of Abs and Ags. A solution of rabbit anti-OVA IgG (50 μg in 25 μl/mouse) is injected intradermally, and immediately following is an intravenous injection of chicken egg albumin (20 mg/kg of body weight) in a solution containing 1% Evans blue dye. The degree of edema and hemorrhage is measured in the dorsal skin of C57BL/6 mice using the Evan's Blue dye as an indicator of local tissue damage. Purified polyclonal rabbit IgG is used as a control.
Pretreatment time, in which the test compounds are administered prior to Ab/Ag challenge, depends on the pharmacokinetic (PK) properties of each individual compound. Four hours after induction of Arthus reaction, mice are euthanized, and tissues are harvested for assessment of edema.

Series [4] concerns Human Jurkat T-cells (clone N). The series is described as follows: Jurkat T-cell activation (anti-TCR, CD69 upregulation). The format is cell-based. The procedure, abridged:
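Readout is CD69 upregulation by flow cytometry (anti-CD69-APC, 20 min at 4 °C) after 20 h anti-TCR (C305, 500 ng/ml) stimulation at 37 °C.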

The target of the next series is T1, Syk kinase (Homo sapiens, UniProt P43405).
T1 construct: purchased Upstate, Lake Placid NY
Nature of the series: Syk kinase biochemical fluorescence polarization assay. Particulars: isolated Syk kinase, fluorescence polarization, 4 uM ATP. (In general: Fluorescence polarisation rises when a labelled molecule tumbles more slowly, as on binding a larger partner.)

Where [5] appears, read: 50 mg/kg, pretreatment time 1.5 hrs.
Where [6] appears, read: 50 mg/kg, pretreatment time 1.5 hrs + 4 hours.
The mark [7] stands for this setting: 100 mg/kg, pretreatment time 1.5 hrs.
The mark [8] stands for this setting: 100 mg/kg, pretreatment time 1.5 hrs + 4 hours.
[9] abbreviates: 100 mg/kg, pretreatment time 1 hrs + 4 hours.

A value given as a limit tells only on which side of the number the result lay.

`Cc1ccc(S(=O)(=O)O)cc1.Cc1ccc(S(=O)(=O)O)cc1.OCCCn1ncc2cc(Nc3ncc(F)c(Nc4ccc(Cl)c(Cl)c4)n3)ccc21` [Compound R935451]: the IC50 in series [1] (low cell density) was greater than 10000 nM; in series [2] (low cell density) it was greater than 10 µM. The “% inhibition to vehicle control Edema Size ± SEM” value in series [3] (10 mg/kg, pretreatment time 1.5 hrs) is listed as −14.4 ± 13.3%; in series [3] (30 mg/kg, pretreatment time 1.5 hrs) it was −30.6 ± 15.4%; in series [3] (setting [5]) it was 74.9 ± 7.5%; in series [3] (setting [7]) it was 77.1 ± 8.0%. The “Plasma Concentration ± SEM (ng/ml) Exposure = Pretreatment Time + 4 hours” value (from here on “Plasma Concentration ± SEM”) in series [3] (10 mg/kg, pretreatment time 1.5 hrs + 4 hours) was 14.4 ± 1.8 ng/mL; in series [3] (30 mg/kg, pretreatment time 1.5 hrs + 4 hours), 78.0 ± 32.0 ng/mL; in series [3] (setting [6]), 385.0 ± 149.4 ng/mL; in series [3] (setting [8]), 1459.0 ± 444.4 ng/mL.

With `CC1(C)Oc2ccc(Nc3nc(Nc4ccc5cn[nH]c5c4)ncc3F)cc2NC1=O.O=S(=O)(O)c1ccccc1` [Compound R935429], the IC50 in series [1] (low cell density) was 36 nM; in series [2] (low cell density) it was greater than 10 µM. Moreover, the “% inhibition to vehicle control Edema Size ± SEM” value in series [3] (setting [5]) is reported as −5.1 ± 14.9%; in series [3] (100 mg/kg, pretreatment time 0 hrs) it was −2.8 ± 14.8%; in series [3] (setting [7]), 67.1 ± 13.8%; in series [3] (100 mg/kg, pretreatment time 2 hrs) it was 55.5 ± 7.9%; in series [3] (100 mg/kg, pretreatment time 4 hrs), 35.0 ± 11.4%. In addition, the “Plasma Concentration ± SEM” value was found to be 164 ± 89 ng/mL in series [3] (setting [6]), 401 ± 96 ng/mL in series [3] (setting [9]) and 206 ± 115 ng/mL in series [3] (setting [8]).

`COc1cc(Nc2ncc(F)c(Nc3ccc4c(c3)NC(=O)C(C)(C)O4)n2)cc(OC)c1.Cc1ccc(S(=O)(=O)O)cc1` [Compound R927070]: the IC50 came to 54 nM in series [1] (low cell density) and 5.24 µM in series [2] (low cell density). In addition, the “% inhibition to vehicle control Edema Size ± SEM” value in series [3] (50 mg/kg, pretreatment time 1 hrs) came to 56 ± 15%; in series [3] (setting [5]), 31.1 ± 17.29%; in series [3] (100 mg/kg, pretreatment time 1 hrs), 61 ± 14%; in series [3] (setting [7]), 55.5 ± 7.7%. Besides, the “Plasma Concentration ± SEM” value was 1755 ± 310 ng/mL in series [3] (50 mg/kg, pretreatment time 1 hrs + 4 hours); 2851 ± 712 ng/mL in series [3] (setting [9]); 4095 ± 1187 ng/mL in series [3] (setting [8]).

Regarding `CNC(=O)C1Cc2cc(Nc3ncc(F)c(Nc4ccc(OC(C)C)cc4)n3)ccc2O1` (stereo not shown) [Compound R926956], the IC50 in series [4] was 749 nM; at Syk kinase it was 380 nM; in series [1] (Low Density), 211 nM; in series [2] (Low Density) it was greater than 10 µM.

As for `COc1ccc(Nc2nc(Nc3ccc4cc[nH]c4c3)ncc2F)cc1Cl.Cc1ccc(S(=O)(=O)O)cc1` [Compound R927087], the IC50 in series [1] (low cell density) is 436 nM; in series [2] (low cell density), greater than 10 µM. The “% inhibition to vehicle control Edema Size ± SEM” value is on record as −10.4 ± 14.4% in series [3] (setting [5]) and 28.7 ± 16.6% in series [3] (setting [7]). For the same compound, the “Plasma Concentration ± SEM” value in series [3] (setting [6]) turned out to be 26.9 ± 8.0 ng/mL; in series [3] (setting [8]) it was 28.7 ± 10.8 ng/mL.

`COc1c(Cl)cc(Nc2ncc(F)c(Nc3ccc4c(c3)NC(=O)C(F)(F)O4)n2)cc1Cl` [Compound R927061]: the IC50 at Syk kinase was 158 nM; in series [1] (low cell density), 126 nM; in series [2] (low cell density), 4.72 µM.

Regarding `CNC(=O)C1Cc2cc(Nc3ncc(F)c(Nc4ccc5c(c4)NC(=O)C(F)(F)O5)n3)ccc2O1` (racemic) [Compound R927049], the IC50 at Syk kinase was 4 nM; in series [1] (low cell density), 110 nM; in series [2] (low cell density) it was greater than 10 µM.

As to `COc1cc(Nc2ncc(F)c(Nc3ccc4c(c3)NC(=O)C(F)(F)O4)n2)cc(OC)c1` [Compound R926970], the values for the IC50 (against Syk kinase; in series [1] (low cell density); in series [2] (low cell density)) were 57 nM, 60 nM and greater than 10 µM, respectively.

Take `COc1ccc(Nc2ncc(F)c(Nc3ccc4c(c3)C(N)CCO4)n2)cc1Cl` (racemic) [Compound R950428]: the values for the IC50 (on Syk kinase; in series [1] (low cell density); in series [2] (low cell density)) were 127 nM, 123 nM and 21 µM, respectively.

For `CNC(=O)COc1cccc(Nc2ncc(F)c(Nc3cc(C)c(O)c(Cl)c3)n2)c1` [Compound R945366], the IC50 at Syk kinase was 59 nM; in series [1] (low cell density) it was 112 nM; in series [2] (low cell density), greater than 10 µM.

For the compound `O=C1Nc2cc(Nc3nc(Nc4cc(Cl)cc(Cl)c4)ncc3F)ccc2OC1(F)F` [Compound R926985], the values for the IC50 (on Syk kinase; in series [1] (low cell density); in series [2] (low cell density)) were 203 nM, 140 nM and 4.13 µM, respectively.

Take `O=C1COc2ccc(Nc3nc(Nc4cccc(OCC(=O)NC5CCC5)c4)ncc3F)nc2N1` [Compound R945389]: the IC50 against Syk kinase is 35 nM; in series [1] (low cell density), 74.8 nM; in series [2] (low cell density), greater than 10 µM.

On to `Nc1cccc(Nc2nc(Nc3cccc(O)c3)ncc2F)n1` [Compound R927083], for which the IC50 on Syk kinase was found to be 449 nM; in series [1] (low cell density) it was 316 nM; in series [2] (low cell density), 19 µM.

For `O=C1Nc2cc(Nc3nc(Nc4cc(Cl)c(O)c(Cl)c4)ncc3F)ccc2OC1(F)F` [Compound R927048], the IC50 is 2 nM against Syk kinase, 50 nM in series [1] (low cell density) and greater than 10 µM in series [2] (low cell density).

In the case of `CC(=O)N1CCN(c2ccc(Nc3ncc(F)c(NC4CC4)n3)cc2)CC1` [Compound R945370], the values for the IC50 (on Syk kinase; in series [1] (low cell density); in series [2] (low cell density)) were 1050 nM, 522 nM and greater than 10 µM, respectively.

Turning to `Fc1cnc(Nc2ccc3cc[nH]c3c2)nc1Nc1ccc(Cl)c(Cl)c1` [Compound R926975], the IC50 at Syk kinase amounted to 767 nM; in series [1] (low cell density), 421 nM; in series [2] (low cell density), 30.2 µM.

Take `COc1c(C)cc(Nc2ncc(F)c(Nc3ccc4c(c3)-n3ccnc3CO4)n2)cc1Cl` [Compound R935418]: the IC50 at Syk kinase is 558 nM; in series [1] (low cell density), 228 nM; in series [2] (low cell density), greater than 10 µM.

As to `COc1ccc(Nc2ncc(F)c(Nc3cccc(N)n3)n2)cc1Cl` [Compound R927082], the figures for the IC50 (on Syk kinase; in series [1] (low cell density); in series [2] (low cell density)) were 312 nM, 256 nM and greater than 10 µM, respectively.

Take `Cc1cc(Nc2ncc(F)c(Nc3ccc4c(c3)NC(=O)C(C)(C)O4)n2)cc(Cl)c1O` [Compound R940358]: the IC50 in series [4] was 159 nM; at Syk kinase, 23 nM; in series [1] (low cell density) it was 30 nM; in series [2] (low cell density), 4.3 µM.

On to `CC(=O)N(C)c1ccc(Nc2ncc(F)c(Nc3ccc4c(n3)NC(=O)C(C)(C)O4)n2)cc1` [Compound R945417], for which the IC50 against Syk kinase is greater than 10000 nM; in series [1] (low cell density), 2520 nM; in series [2] (low cell density), greater than 10 µM.

`COc1ccc(Nc2ncc(F)c(Nc3ccc4c(n3)NC(=O)CO4)n2)cc1Cl` [Compound R945399]: the IC50 on Syk kinase is 166 nM; in series [1] (low cell density), 163 nM; in series [2] (low cell density), greater than 10 µM.

Regarding `COc1cc(Nc2ncc(F)c(Nc3ccc4c(c3)NC(=O)C(F)(F)O4)n2)cc(C(F)(F)F)c1` [Compound R926984], the IC50 is 459 nM on Syk kinase, 167 nM in series [1] (low cell density) and greater than 10 µM in series [2] (low cell density).

Turning to `CN(C)Cc1cc2cc(Nc3ncc(F)c(Nc4ccc5c(c4)NC(=O)C(F)(F)O5)n3)ccc2o1` [Compound R926979], the IC50 against Syk kinase turned out to be 13 nM; in series [1] (low cell density), 109 nM; in series [2] (low cell density), 23.5 µM.

On to `CC1(C)Oc2ccc(Nc3ncc(F)c(Nc4ccc5c(c4)NC(=O)C(F)(F)O5)n3)cc2NC1=O` [Compound R940367], for which the IC50 against Syk kinase was 13 nM; in series [1] (low cell density), 117 nM; in series [2] (low cell density), 14.1 µM.

The values are drawn from US8158621B2, “Methods of treating or preventing autoimmune diseases with 2,4-pyrimidinediamine compounds” (Rigel Pharmaceuticals, Inc., priority 2002, dated 2012).
